{
  "source": "patent US6126909A",
  "about": "“Process and apparatus for the production of BI-212 and a use thereof” (Arch Development Corporation, priority 1999, dated 2000)",
  "key": {"NIH:OVCAR-3 cells": {"test_system": "NIH:OVCAR-3 cells", "assay": "In vitro irradiation survival (clonogenic), monolayer", "format": "cell-based, human", "settings": "OVCAR-3 monolayer", "experimental": "(§1) In vitro studies were carried out using three well known cell lines, the cells from which were exposed to radiation from: (1) an X-ray source; (2) P-32 chromic phosphate; and (3) Bi-212 chloride. The three cell lines that were used are V-79, which is a Chinese hamster lung fibroblast, Ehrlich-Lettre Ascites carcinoma (ATCC CCL 77), which is an ascites producing -tumor, and NIH:OVCAR-3 (ATCC HTB 161), which is a human ovarian adenocarcinoma. These well known cell lines are predictive of what happens in vivo. The cells were grown as monolayers and into spheroid formations and subsequently irradiated, as described herein.\n(§2) The V-79 cells were maintained under exponential growth conditions in minimal essential medium (MEM) supplemented with 10 percent fetal bovine serum. The Ehrlich-Lettre Ascites carcinoma cells were maintained in 90 percent NCTC 109 supplemented with 10 percent fetal bovine serum. The NIH:OVCAR-3 cells were maintained in RPMI 1640 and 10 percent fetal bovine serum.\n(§3) Cells from each of the cell lines were irradiated by subjecting the cells to X-ray radiation, P-32, and Bi-212. The X-ray source that was used is a General Electric 250 kvp Maxitron, 26 […] (mA) (HVL 1.5 mm Cu) operated at a dose rate of 1.11 Greys per minute (Gy/min). The cells, in both monolayer and spheroid form were exposed at room temperature and then immediately plated for survival.\n(§4) Cells in both monolayer and spheroid were exposed to P-32 chromic phosphate. The radiation dose to each sample was calculated as: […]\n(§5) After exposure, the cells were washed in phosphate-buffered saline (PBS) and immediately plated for survival.\n(§6) The cell lines were also irradiated using Bi-212. Bismuth-212 was eluted from a generator as described in the aforementioned patent to Atcher et al., which was a cation-exchange column supporting Ra-224, with 1 ml of 0.15 N HI, and the generator was purged with 2 ml of distilled deionized water. […] The filter was purged with 1 ml of distilled deionized water, and the radioactivity was assayed using a calibrated 3×3-in. […]\n(§7) Cells were exposed over a period of four hours. The dose (D) per microCurie was calculated and corrected for decay as follows: [formula] where V=volume in milliliters, and […]\n(§8) Following plating, survival measurements were taken for each of the irradiated cell samples. […] The plates were then stained with crystal violet and colonies greater than 50 cells were scored. The surviving fraction was then determined.\n(§9) Intrinsic radiosensitivity (Do) was calculated from the survival curves. […] Relative biological effectiveness (RBE) was determined as the ratio of the absorbed dose of X-ray to that of alpha radiation to produce the same degree of biological effect."}, "V-79 cells": {"test_system": "V-79 cells", "assay": "In vitro irradiation survival (clonogenic), monolayer", "format": "cell-based, Chinese hamster", "settings": "V-79 monolayer", "experimental": "as §1, §2, §3, §4, §5, §6, §7, §8, §9"}, "[1]": {"assay": "Retention after intraperitoneal injection in mice", "format": "in vivo, mouse"}, "[2]": {"assay": "Distribution in peritoneal cavity (imaging and necropsy)", "format": "in vivo, rabbit", "settings": "rabbits", "experimental": "In vivo studies were conducted to determine the distribution of Bi-212 produced using the above-noted process and to compare the Bi-212 distribution to the distribution of Pb-212 ferrous hydroxide in colloidal form. The in vivo studies were conducted using white, female New Zealand rabbits weighing about 4.5 kilograms ([…]) each. Studies were also conducted using rabbits to determine the toxicity levels, e.g., the maximum tolerated dose. Efficacy studies were conducted using 25 gram (gm) female Swiss-Webster mice inoculated with Ehrlich-Lettre Ascites carcinoma cells.\nGroups of rabbits were instilled with a varying amounts (correlating to varying activities) of Bi-212 that were prepared in accordance with the before-described process, neutralized to pH values of between 5.0 and 7.4, and had added thereto a quantity of normal saline to make a 200 cc sample. To compare the distribution of Bi-212, Pb-212 ferrous hydroxide was prepared in accordance with known methods. Rotmensch et al., Gynecol. Oncol., 35:297-300 (1989). […]\nOf the groups of rabbits instilled with the Bi-212 solution, a rabbit was imaged and necropsied at each of one-half hour, one hour and three hours after instillation. The percent injected activity (%IA) in each organ was measured to determine the distribution of the Bi-212(Table 6). […] The percent activity remaining in the peritoneal fluid was measured."}, "[3]": {"settings": "dose increment reducing survival to 37 percent"}},
  "note": "“Also recorded” adds a separate entry of the source.",
  "data": [
    {"smiles": "[212Bi]", "note": "[Bi-212, bismuth-212]", "values": [
      {"measurement": "D0 (intrinsic radiosensitivity)", "setting": "NIH:OVCAR-3 cells; [3]", "result": 0.75, "unit": "Gy"},
      {"measurement": "Relative biological effectiveness (RBE)", "setting": "NIH:OVCAR-3 cells; relative to X-ray", "result": 3.19},
      {"measurement": "D0 (intrinsic radiosensitivity)", "setting": "V-79 cells; [3]", "result": 0.77, "unit": "Gy"},
      {"measurement": "Relative biological effectiveness (RBE)", "setting": "V-79 cells; relative to X-ray", "result": 3.02},
      {"measurement": "Carcass", "setting": "[1]; 1 min", "result": 88.3, "unit": "% IA"},
      {"measurement": "Urine", "setting": "[1]; 1 min", "result": 0.025, "unit": "% IA"},
      {"measurement": "Carcass", "setting": "[1]; 10 min", "result": 87.3, "unit": "% IA"},
      {"measurement": "Urine", "setting": "[1]; 10 min", "result": 2.2, "unit": "% IA"},
      {"measurement": "Carcass", "setting": "[1]; 16 min", "result": 66.8, "unit": "% IA"},
      {"measurement": "Stool", "setting": "[1]; 16 min", "result": 0.20, "unit": "% IA"},
      {"measurement": "Urine", "setting": "[1]; 16 min", "result": 2.9, "unit": "% IA"},
      {"measurement": "Carcass", "setting": "[1]; 30 min", "result": 79.1, "unit": "% IA"},
      {"measurement": "Stool", "setting": "[1]; 30 min", "result": 0.53, "unit": "% IA"},
      {"measurement": "Urine", "setting": "[1]; 30 min", "result": 6.9, "unit": "% IA"},
      {"measurement": "Carcass", "setting": "[1]; 61 min", "result": 68.5, "unit": "% IA"},
      {"measurement": "Stool", "setting": "[1]; 61 min", "result": 1.3, "unit": "% IA"},
      {"measurement": "Urine", "setting": "[1]; 61 min", "result": 15.9, "unit": "% IA"},
      {"measurement": "Carcass", "setting": "[1]; 120 min", "result": 62.9, "unit": "% IA"},
      {"measurement": "Stool", "setting": "[1]; 120 min", "result": 6.7, "unit": "% IA"},
      {"measurement": "Urine", "setting": "[1]; 120 min", "result": 19.5, "unit": "% IA"},
      {"measurement": "Stool", "setting": "[1]; 180 min", "result": 8.3, "unit": "% IA"},
      {"measurement": "Urine", "setting": "[1]; 180 min", "result": 24.8, "unit": "% IA"},
      {"measurement": "Carcass", "setting": "[1]; 180 min (3 hours)", "result": 61.4, "unit": "% IA"},
      {"measurement": "Distribution in peritoneal cavity/fluid", "setting": "[2]; intraperitoneal instillation", "result": "even distribution within the peritoneal fluid; also recorded: relatively even"},
      {"measurement": "Clumping / localized activity in peritoneal cavity", "setting": "[2]; imaging up to 3 hours or necropsy", "result": "no clumping; i.e., no localized activity in the peritoneal cavity up to 3 hours after instillation"}
    ]}
  ]
}
